Data from patent US9006487B2, “Amine-containing lipids and uses thereof” (Massachusetts Institute of Technology, priority 2005, dated 2015).
Values joined by “and” are separate entries in the source; they are usually repeats but may differ in a detail not shown here. Equal values may be shown once.

Test system: cos-7 cells
Assay: DNA transfection: luciferase expression relative to Lipofectamine 2000
Format: cell-based
Details: for % of the luciferase activity obtained from the use of Lipofectamine 2000: 300 ng DNA per well; for % of the luciferase activity obtained from the use of Lipofectamine 2000 / Luciferase expression as a percentage of that achieved using Lipofectamine 2000: luciferase assay after 48 hours; for luciferase expression (second part of table, values relative to LIPO2000): 300 ng of DNA per well; for Luciferase expression as a percentage of that achieved using Lipofectamine 2000: 300 ng Luciferase DNA per well
Procedure, shortened: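 cos-7 cells were transfected with 300 ng/well luciferase DNA complexed with lipid at ratios from 2.5 to 25 w/w. Bright-Glo luminescence was read after 48 hours and converted to ng luciferase by standard curve. Data are percent of the Lipofectamine 2000 control (2.5 w/w).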

| Compound | Luciferase expression as a percentage of that achieved using Lipofectamine 2000 (lipid/DNA 2.5 w/w) | Luciferase expression as a percentage of that achieved using Lipofectamine 2000 (lipid/DNA 5 w/w) | Luciferase expression as a percentage of that achieved using Lipofectamine 2000 (lipid/DNA 10 w/w) | Luciferase expression as a percentage of that achieved using Lipofectamine 2000 (lipid/DNA 15 w/w) | Luciferase expression as a percentage of that achieved using Lipofectamine 2000 (lipid/DNA 20 w/w) | Luciferase expression as a percentage of that achieved using Lipofectamine 2000 (lipid/DNA 25 w/w) | further results |
| --- | --- | --- | --- | --- | --- | --- | --- |
| CCCCCCCCCCCCCCCOC(=O)CC[N+](C)(CCC[N+](C)(CCC(=O)OCCCCCCCCCCCCCCC)CCC(=O)OCCCCCCCCCCCCCCC)CCC(=O)OCCCCCCCCCCCCCCC [QG100] |  |  |  |  |  |  | % of the luciferase activity obtained from the use of Lipofectamine 2000 (2.5 w/w lipid to DNA): 11.2%; % of the luciferase activity obtained from the use of Lipofectamine 2000 (5 w/w lipid to DNA): 32.1%; % of the luciferase activity obtained from the use of Lipofectamine 2000 (10 w/w lipid to DNA): 57.1%; % of the luciferase activity obtained from the use of Lipofectamine 2000 (15 w/w lipid to DNA): 102.6%; % of the luciferase activity obtained from the use of Lipofectamine 2000 (20 w/w lipid to DNA): 93.0%; % of the luciferase activity obtained from the use of Lipofectamine 2000 (25 w/w lipid to DNA): 94.5%; luciferase expression (second part of table, values relative to LIPO2000) (lipid/DNA 2.5 w/w): 11.2; luciferase expression (second part of table, values relative to LIPO2000) (lipid/DNA 5 w/w): 32.1; luciferase expression (second part of table, values relative to LIPO2000) (lipid/DNA 10 w/w): 57.1; luciferase expression (second part of table, values relative to LIPO2000) (lipid/DNA 15 w/w): 102.6; luciferase expression (second part of table, values relative to LIPO2000) (lipid/DNA 20 w/w): 93.0; luciferase expression (second part of table, values relative to LIPO2000) (lipid/DNA 25 w/w): 94.5 |
| CCCCCCCCCCCCOC(=O)CCN(C)CCN(CCC(=O)OCCCCCCCCCCCC)CCC(=O)OCCCCCCCCCCCC [LD95] | 1.2% | 19.5% | 3.6% | 9.1% | 9.4% | 5.9% |  |
| CCCCCCCCCCCCOC(=O)CCN(CCO)CCN(CCO)CCC(=O)OCCCCCCCCCCCC [LD103] | 11.6% | 17.2% | 24.4% | 27.1% | 12.3% | 6.6% |  |
| CCCCCCCCCCCCCCCOC(=O)CCN(CCCO)CCC(=O)OCCCCCCCCCCCCCCC [LG20] | 2.0% | 2.5% | 0.4% | 0.2% | 0.1% | 0.1% |  |
| CCCCCCCCCCOC(=O)CCN(C)CCCN(C)CCC(=O)OCCCCCCCCCC [LB63] | 0.1% | 0.2% and 0.1% | 0.1% | 1.0% and 0.1% | 0.1% | 0.2% and 0.1% |  |
| CCCCCCCCCCCCCCOC(=O)CCN(CCC(=O)OCCCCCCCCCCCCCC)CC1CCCO1 (centres unmarked) [LF15] | 0.1% | 0.1% | 0.0% | 0.0% | 0.1% | 0.1% |  |
| CCCCCCCCCCCCCCOC(=O)CCN(CCN(CCC(=O)OCCCCCCCCCCCCCC)C(C)C)C(C)C [LF62] | 0.1% | 0.1% | 0.2% | 0.1% | 0.4% | 0.2% |  |
| CCCCCCCCCCOC(=O)CCN(CCC(=O)OCCCCCCCCCC)CCN1CCCC1 [LB76] | 0.1% | 0.1% | 0.1% | 0.1% | 0.1% | 0.1% |  |
| CCCCCCCCCCCCCCOC(=O)CCN(CCCCO)CCC(=O)OCCCCCCCCCCCCCC [LF28] | 0.1% | 0.1% | 0.1% | 0.2% | 0.3% | 0.4% |  |
| CCCCCCCCCCCCCCCOC(=O)CCN(C)CCN(C)CCC(=O)OCCCCCCCCCCCCCCC [LG60] | 0.9% | 1.0% | 0.8% | 0.9% | 0.8% | 1.0% |  |
| CCCCCCCCCCCCCCCCCCOC(=O)CCN(CCC(=O)OCCCCCCCCCCCCCCCCCC)C[C@@H](C)O [LH21] | 0.0% | 0.0% | 0.0% | 0.0% | 0.0% | 0.0% |  |
| CCCCCCCCCCCCOC(=O)CC[N+](C)(CCC(=O)OCCCCCCCCCCCC)CC[N+](C)(CCO)CCO.[I-].[I-] [QD86] |  |  | 2.0% | 2.0% |  |  |  |
| CCCCCCCCCCCCOC(=O)CC[N+](C)(CCC[N+](C)(CCO)CCO)CCC(=O)OCCCCCCCCCCCC.[I-].[I-] [QD87] |  |  | 0.5% | 0.7% |  |  |  |
| CCCCCCCCCCCCCCOC(=O)CCN(CCC(=O)OCCCCCCCCCCCCCC)CCc1ccc(OC)c(OC)c1 [LF17] | 0.1% | 0.1% | 0.1% | 0.1% | 0.1% | 0.1% |  |
| CCCCCCCCCCOC(=O)CCN(CCC(=O)OCCCCCCCCCC)CCc1ccc(OC)c(OC)c1 [LB17] | 0.1% | 0.1% | 0.1% | 0.1% | 0.1% | 0.1% |  |
| CCCCCCCCCCCCCCOC(=O)CCN(CCOC)CCC(=O)OCCCCCCCCCCCCCC [LF10] | 0.1% | 0.1% | 0.0% | 0.0% | 0.1% | 0.1% |  |
| CCCCCCCCCCCCCCOC(=O)CCN(CCC(=O)OCCCCCCCCCCCCCC)CCN(CCO)CCO [LF86] | 21.5% | 17.9% | 19.6% | 21.2% | 10.5% | 10.4% |  |
| CCCCCCCCCCCCCCCOC(=O)CCN(CCCOC)CCC(=O)OCCCCCCCCCCCCCCC [LG1] | 0.0% | 0.0% | 0.0% | 0.0% | 0.0% | 0.0% |  |
| CCCCCCCCCCCCOC(=O)CCN(CCCN(CCO)CCO)CCC(=O)OCCCCCCCCCCCC [LD87] |  |  | 53.9% | 43.3% |  |  | luciferase expression (second part of table, values relative to LIPO2000) (lipid/DNA 10 w/w): 53.9; luciferase expression (second part of table, values relative to LIPO2000) (lipid/DNA 15 w/w): 43.3 |
| CCCCCCCCCCCCOC(=O)CCN(C)CCCN(C)CCC(=O)OCCCCCCCCCCCC [LD63] | 0.7% | 0.8% | 0.3% | 0.3% | 0.4% | 0.6% |  |
